molecular target: neurotensin receptor 1 (NTR1) (Homo sapiens (Human), UniProt P30989); assay: NTR1 dose response, high-content imaging beta-arrestin-GFP assay in NTR1-U2OS cells; type: cell-based; conditions: read-out: EC50
Source text: The cell lines utilized in the high-content imaging assays, which include the NTR1-, NTR2-, and GPR35-U2OS osteosarcomas, were obtained from the laboratory of Dr. Lawrence Barak at the Duke University Medical Center. The media used in the culture of the cell lines, as well as the assays themselves, consisted of Minimum Essential Medium (15-010-CM) and L-glutamine (25-005-CL) from Cellgro/Mediatech (Manassas, Va.), fetal bovine serum (SH30396.03) from Hyclone (Logan, Utah), penicillin-streptomycin solution (PS-20) from Omega Scientific in Tarzana, Calif., G418 (ant-gn-1) from Invivogen (San Diego, Calif.), and zeocin (R250-01) from Invitrogen (Carlsbad, Calif.). Cell lines were cultured in T225 tissue culture flasks (431082) supplied by Corning (Corning, N.Y.). Additional reagents employed include Dulbecco's Phosphate-Buffered Saline (DPBS) (21-031CV) from Cellgro/Mediatech, Trypsin-EDTA 0.05% (25300) from Invitrogen, paraformaldehyde (30528954) from Acros Organics (Geel, Belgium), Hoechst 33342 (H3570) from Invitrogen. The high-content assays were run in 1536-well plates (29326) supplied by Aurora Biotechnology (Poway, Calif.) and utilized aluminum plate seals (T592100) from E&K Scientific (Santa Clara, Calif.). […]
The high-content imaging based NTR1 primary screen in 1536-well format was utilized to assay the MLSMR library of chemical entities in the following manner. On day one, 4 uL of a cell suspension containing 350,000 NTR1-U2OS cells per mL is added to each well of a 1536-well assay plate. Cells are plated in MEM medium containing 2.5% Fetal Bovine Serum, 1% Penicillin/Streptomycin solution, 1% L-Glutamine, 400 ug/mL G418, and 200 ug/mL Zeocin. The assay plates are then incubated overnight at 37° C., under 5% CO2. Following the overnight incubation, a volume of 60 nL of the compounds at 2 mM in DMSO (final 20 μM, 1% DMSO) was transferred to columns 5-48 of the assay plates using a LabCyte Echo Liquid Handler. Next, 60 nL of DMSO were dispensed to columns 1-4, which served as the positive and neutral control wells. […] The assay plates were centrifuged on an Eppendorf 5810 centrifuge at 1000 rpm for 1 min to ensure even liquid levels in the wells of the assay plates. The assay plates were then returned to the incubator for 1 hour. Following the hour-long incubation at 37° C., the cells in each well were fixed with 4 uL of 6% paraformaldehyde added with a Multidrop Combi. The assay plates were centrifuged as before and incubated at room temperature for 1 hour. On the Kalypsys, plates were then aspirated down to 2.5 uL per well and washed twice with 11 uL per well of DPBS, followed by a final aspiration to 2.5 uL per well. On the Combi dispenser, 5 uL of 5 ug/mL Hoechst 33342 diluted in DPBS was added to each well of assay plates. The plates were again centrifuged as previously described, sealed, and incubated for at least 1 hour prior to being loaded on a PerkinElmer Opera QEHS.
Image acquisition was performed with a 45 plate capacity loader/stacker and the following settings: 40×0.6 NA air objective, acquisition camera set to 2-by-2 binning for an image size of 688 by 512 pixels, beta-arrestin-GFP acquired using 488 nm laser excitation and 540/75 nm emission filters, DAPI (nuclei) using 365 nm Xenon lamp excitation and 450/50 nm emission filters, 3 fields per well. Image analysis was performed using the Acapella Spot Detection Algorithm. For analysis settings and the metrics employed in the data analyses, please refer to supplemental information.
Compounds that were successfully confirmed in quadruplicate at 20 uM were then run in dose response in the primary assay. As with the single concentration hit confirmation, the assay was performed in an identical manner as the primary screen with the following modifications. […]

neurotensin receptor 1 (NTR1), sequence (P30989 whole entry, species assumed): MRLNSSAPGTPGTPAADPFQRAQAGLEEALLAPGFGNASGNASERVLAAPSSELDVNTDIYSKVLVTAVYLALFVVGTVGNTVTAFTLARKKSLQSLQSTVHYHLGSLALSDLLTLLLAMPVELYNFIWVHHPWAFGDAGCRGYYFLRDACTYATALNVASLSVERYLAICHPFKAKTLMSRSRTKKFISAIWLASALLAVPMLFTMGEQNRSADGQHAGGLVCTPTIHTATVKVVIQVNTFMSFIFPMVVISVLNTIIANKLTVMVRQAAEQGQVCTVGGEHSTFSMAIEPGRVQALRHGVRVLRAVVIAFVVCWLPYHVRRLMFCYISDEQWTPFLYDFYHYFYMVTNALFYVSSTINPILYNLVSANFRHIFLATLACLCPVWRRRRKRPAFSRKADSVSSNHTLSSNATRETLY

First: COc1ccccc1C1CCN(c2nc(C3CC3)nc3ccc(N4CC[C@@H](N(C)C)C4)cc23)CC1 (stereo in doubt) [Example 91, (1-{2-cyclopropyl-4-[4-(2-methoxy-phenyl)-piperidin-1-yl]-quinazolin-6-yl}-pyrrolidin-3-yl)-dimethyl-amine]
Second: CN(C)c1ccc2nc(C3CC3)nc(N3CCC(c4ccccc4N4CCC4)CC3)c2c1 [Example 3]
The EC50 of the first is lower: 2000 to 10000 nM for the first, greater than 10000 nM for the second. The first is the more potent here.

First: COc1ccccc1N[C@@H]1CCN(c2nc(C3CC3)nc3ccc(N(C)CCO)cc23)C1 (stereo in doubt) [Example 153, 2-({2-cyclopropyl-4-[3-(2-methoxy-phenylamino)-pyrrolidin-1-yl]-quinazolin-6-yl}-methyl-amino)-ethanol]
Second: CN(C)c1ccccc1C1CCN(c2nc(C3CC3)nc3ccc(N(C)CCO)cc23)CC1 [Example 10, 2-({2-cyclopropyl-4-[4-(2-dimethylamino-phenyl)-piperidin-1-yl]-quinazolin-6-yl}-methyl-amino)-ethanol]
The EC50 of the first is higher: greater than 10000 nM for the first, 2000 to 10000 nM for the second. The second is the more potent here.

First: COc1ccccc1C1CCN(c2nc(C3(F)CC3)nc3c(Cl)cc(N4CC[C@@H](O)C4)cc23)CC1 (stereo in doubt) [Example 202, 1-{8-Chloro-2-(1-fluoro-cyclopropyl)-4-[4-(2-methoxy-phenyl)-piperidin-1-yl]-quinazolin-6-yl}-pyrrolidin-3-ol]
Second: COc1ccccc1C1CCN(c2nc(C3(F)CC3)nc3c(Cl)cc(N4CC[C@H](O)C4)cc23)CC1 (stereo in doubt) [Example 203, 1-{8-Chloro-2-(1-fluoro-cyclopropyl)-4-[4-(2-methoxy-phenyl)-piperidin-1-yl]-quinazolin-6-yl}-pyrrolidin-3-ol]
The EC50 of the first is lower: 500 to 2000 nM for the first, 2000 to 10000 nM for the second. The first is the more potent here.

`CN(C)c1ccc2nc(C3CC3)nc(N3CCN(c4ccccc4N4CCC4)CC3)c2c1` [Example 1, {4-[4-(2-azetidin-1-yl-phenyl)-piperazin-1-yl]-2-cyclopropyl-quinazolin-6-yl}-dimethyl-amine] and `CCN(C)c1ccc2nc(C3CC3)nc(N3CCN(c4ccccc4N4CCC4)CC3)c2c1` [Example 2, {4-[4-(2-azetidin-1-yl-phenyl)-piperazin-1-yl]-2-cyclopropyl-quinazolin-6-yl}-ethyl-methyl-amine] fall in the same range of EC50: 500 to 2000 nM for the first, 500 to 2000 nM for the second.

Compared with `CCN(C)c1ccc2nc(C3CC3)nc(N3CCC(c4ccccc4N4CCC4)CC3)c2c1` [Example 4, {4-[4-(2-azetidin-1-yl-phenyl)-piperidin-1-yl]-2-cyclopropyl-quinazolin-6-yl}-ethyl-methyl-amine], `CN(CCO)c1ccc2nc(C3CC3)nc(N3CCC(c4ccccc4N4CCC4)CC3)c2c1` [Example 6, 2-({4-[4-(2-azetidin-1-yl-phenyl)-piperidin-1-yl]-2-cyclopropyl-quinazolin-6-yl}-methyl-amino)-ethanol] is lower in EC50: greater than 10000 nM for the first, 500 to 2000 nM for the second.

`CN(C)CCN(C)c1ccc2nc(C3CC3)nc(N3CCC(c4ccccc4N4CCC4)CC3)c2c1` [Example 5, N-{4-[4-(2-azetidin-1-yl-phenyl)-piperidin-1-yl]-2-cyclopropyl-quinazolin-6-yl}-N,N′,N′-trimethyl-ethane-1,2-diamine] and `COCCN(C)c1ccc2nc(C3CC3)nc(N3CCC(c4ccccc4N4CCC4)CC3)c2c1` [Example 7, {4-[4-(2-azetidin-1-yl-phenyl)-piperidin-1-yl]-2-cyclopropyl-quinazolin-6-yl}-(2-methoxy-ethyl)-methyl-amine] fall in the same range of EC50: 2000 to 10000 nM for the first, 2000 to 10000 nM for the second.

First: CN(CCN1CCOCC1)c1ccc2nc(C3CC3)nc(N3CCC(c4ccccc4N4CCC4)CC3)c2c1 [Example 8, {4-[4-(2-azetidin-1-yl-phenyl)-piperidin-1-yl]-2-cyclopropyl-quinazolin-6-yl}-methyl-(2-morpholin-4-yl-ethyl)-amine]
Second: CN(CCN1CCCC1)c1ccc2nc(C3CC3)nc(N3CCC(c4ccccc4N4CCC4)CC3)c2c1 [Example 9, {4-[4-(2-azetidin-1-yl-phenyl)-piperidin-1-yl]-2-cyclopropyl-quinazolin-6-yl}-methyl-(2-pyrrolidin-1-yl-ethyl)-amine]
The EC50 of the first is lower: 500 to 2000 nM for the first, greater than 10000 nM for the second. The first is the more potent here.

`COCCN(C)c1ccc2nc(C3CC3)nc(N3CCC(c4ccccc4N(C)C)CC3)c2c1` [Example 11, {2-cyclopropyl-4-[4-(2-dimethylamino-phenyl)-piperidin-1-yl]-quinazolin-6-yl}-(2-methoxy-ethyl)-methyl-amine] and `CN(C)CCN(C)c1ccc2nc(C3CC3)nc(N3CCC(c4ccccc4N(C)C)CC3)c2c1` [Example 14, N-{2-cyclopropyl-4-[4-(2-dimethylamino-phenyl)-piperidin-1-yl]-quinazolin-6-yl}-N,N′,N′-trimethyl-ethane-1,2-diamine] fall in the same range of EC50: 2000 to 10000 nM for the first, 2000 to 10000 nM for the second.

`CN(C)c1ccccc1C1CCN(c2nc(C3CC3)nc3ccc(N(C)CCN4CCOCC4)cc23)CC1` [Example 12, {2-Cyclopropyl-4-[4-(2-dimethylamino-phenyl)-piperidin-1-yl]-quinazolin-6-yl}-methyl-(2-morpholin-4-yl-ethyl)-amine] and `CN(C)c1ccccc1C1CCN(c2nc(C3CC3)nc3ccc(N(C)CCN4CCCC4)cc23)CC1` [Example 13, {2-cyclopropyl-4-[4-(2-dimethylamino-phenyl)-piperidin-1-yl]-quinazolin-6-yl}-methyl-(2-pyrrolidin-1-yl-ethyl)-amine] fall in the same range of EC50: 2000 to 10000 nM for the first, 2000 to 10000 nM for the second.

First: COc1ccccc1C1CCN(c2nc(C3(F)CC3)nc3ccc(N(C)CCO)cc23)CC1 [Example 15, 2-({2-(1-Fluoro-cyclopropyl)-4-[4-(2-methoxy-phenyl)-piperidin-1-yl]-quinazolin-6-yl}-methyl-amino)-ethanol]
Second: CCCN(C)c1ccc2nc(C3(F)CC3)nc(N3CCC(c4ccccc4OC)CC3)c2c1 [Example 20, {2-(1-fluoro-cyclopropyl)-4-[4-(2-methoxy-phenyl)-piperidin-1-yl]-quinazolin-6-yl}-methyl-propyl-amine]
The EC50 of the first is lower: less than 500 nM for the first, 500 to 2000 nM for the second.

`COCCN(C)c1ccc2nc(C3(F)CC3)nc(N3CCC(c4ccccc4OC)CC3)c2c1` [Example 16, {2-(1-fluoro-cyclopropyl)-4-[4-(2-methoxy-phenyl)-piperidin-1-yl]-quinazolin-6-yl}-(2-methoxy-ethyl)-methyl-amine] and `COc1ccccc1C1CCN(c2nc(C3(F)CC3)nc3ccc(N(C)C)cc23)CC1` [Example 18, {2-(1-fluoro-cyclopropyl)-4-[4-(2-methoxy-phenyl)-piperidin-1-yl]-quinazolin-6-yl}-dimethyl-amine] fall in the same range of EC50: 500 to 2000 nM for the first, 500 to 2000 nM for the second.

First: COc1ccccc1C1CCN(c2nc(C3(F)CC3)nc3ccc(N(C)CCN4CCOCC4)cc23)CC1 [Example 17, {2-(1-fluoro-cyclopropyl)-4-[4-(2-methoxy-phenyl)-piperidin-1-yl]-quinazolin-6-yl}-methyl-(2-morpholin-4-yl-ethyl)-amine]
Second: COc1ccccc1C1CCN(c2nc(C3(C)CC3)nc3ccc(N(C)CCO)cc23)CC1 [Example 22, 2-{[4-[4-(2-methoxy-phenyl)-piperidin-1-yl]-2-(1-methyl-cyclopropyl)-quinazolin-6-yl]-methyl-amino}-ethanol]
The EC50 of the first is higher: 500 to 2000 nM for the first, less than 500 nM for the second. The second is the more potent here.

`COc1ccccc1C1CCN(c2nc(C3(N(C)C)CC3)nc3ccc(N(C)C)cc23)CC1` [Example 19, {2-(1-dimethylamino-cyclopropyl)-4-[4-(2-methoxy-phenyl)-piperidin-1-yl]-quinazolin-6-yl}-dimethyl-amine] and `CCCN(C)c1ccc2nc(C3(N(C)CCC)CC3)nc(N3CCC(c4ccccc4OC)CC3)c2c1` [Example 21, {4-[4-(2-methoxy-phenyl)-piperidin-1-yl]-2-[1-(methyl-propyl-amino)-cyclopropyl]-quinazolin-6-yl}-methyl-propyl-amine] cannot be ordered by EC50: greater than 10000 nM for the first, greater than 10000 nM for the second.
